From ChEMBL document CHEMBL5032530, “Discovery of Benzocyclic Sulfone Derivatives as Potent CXCR2 Antagonists for Cancer Immunotherapy” (J Med Chem, 2021)
Calls of active or inactive are those of the source. The calls are words filed in the database; no cut-off is given here.

How the values were obtained:
[1] = target: C-C chemokine receptor type 2 (Homo sapiens) (UniProt P41597); test: Agonist activity against CCR2 (unknown origin) assessed as induction of beta-arrestin 2 recruitment at 10 microM by beta arrestin assay relative to control; type: functional
[2] = target: C-C chemokine receptor type 3 (Homo sapiens) (UniProt P51677); test: Agonist activity against CCR3 (unknown origin) assessed as induction of beta-arrestin 2 recruitment at 10 microM by beta arrestin assay relative to control; type: functional
[3] = target: C-C chemokine receptor type 4 (Homo sapiens) (UniProt P51679); test: Agonist activity against CCR4 (unknown origin) assessed as induction of beta-arrestin 2 recruitment at 10 microM by beta arrestin assay relative to control; type: functional
[4] = target: C-C chemokine receptor type 5 (Homo sapiens) (UniProt P51681); test: Agonist activity against CCR5 (unknown origin) assessed as induction of beta-arrestin 2 recruitment at 10 microM by beta arrestin assay relative to control; type: functional
[5] = target: C-C chemokine receptor type 6 (Homo sapiens) (UniProt P51684); test: Agonist activity against CCR6 (unknown origin) assessed as induction of beta-arrestin 2 recruitment at 10 microM by beta arrestin assay relative to control; type: functional
[6] = target: C-C chemokine receptor type 7 (Homo sapiens) (UniProt P32248); test: Agonist activity against CCR7 (unknown origin) assessed as induction of beta-arrestin 2 recruitment at 10 microM by beta arrestin assay relative to control; type: functional
[7] = target: C-C chemokine receptor type 7 (Homo sapiens) (UniProt P32248); test: Antagonist activity against CCR7 (unknown origin) assessed as inhibition of beta-arrestin 2 recruitment at 10 microM by beta arrestin assay relative to control; type: functional; design: scale not given: the % may be the effect or the level left
[8] = target: C-C chemokine receptor type 8 (Homo sapiens) (UniProt P51685); test: Agonist activity against CCR8 (unknown origin) assessed as induction of beta-arrestin 2 recruitment at 10 microM by beta arrestin assay relative to control; type: functional
[9] = target: C-C chemokine receptor type 10 (Homo sapiens) (UniProt P46092); test: Antagonist activity against CCR10 (unknown origin) assessed as inhibition of beta-arrestin 2 recruitment at 10 microM by beta arrestin assay relative to control; type: functional; design: scale not given: the % may be the effect or the level left
[10] = target: C-X-C chemokine receptor type 1 (Homo sapiens) (UniProt P25024); test: Antagonist activity against CXCR1 (unknown origin) assessed as inhibition of beta-arrestin 2 recruitment at 10 microM by beta arrestin assay relative to control; type: functional; design: scale not given: the % may be the effect or the level left
[11] = target: C-X-C chemokine receptor type 2 (Homo sapiens) (UniProt P25025); test: Agonist activity against CXCR2 (unknown origin) assessed as induction of beta-arrestin 2 recruitment at 10 microM by beta arrestin assay relative to control; type: functional
[12] = target: C-X-C chemokine receptor type 2 (Homo sapiens) (UniProt P25025); test: Antagonist activity against CXCR2 (unknown origin) assessed as inhibition of beta-arrestin 2 recruitment at 10 microM by beta arrestin assay relative to control; type: functional; design: scale not given: the % may be the effect or the level left; details: filed as antagonist
[13] = target: C-X-C chemokine receptor type 3 (Homo sapiens) (UniProt P49682); test: Agonist activity against CXCR3 (unknown origin) assessed as induction of beta-arrestin 2 recruitment at 10 microM by beta arrestin assay relative to control; type: functional
[14] = target: C-X-C chemokine receptor type 4 (Homo sapiens) (UniProt P61073); test: Agonist activity against CXCR4 (unknown origin) assessed as induction of beta-arrestin 2 recruitment at 10 microM by beta arrestin assay relative to control; type: functional
[15] = target: C-X-C chemokine receptor type 5 (Homo sapiens) (UniProt P32302); test: Antagonist activity against CXCR5 (unknown origin) assessed as inhibition of beta-arrestin 2 recruitment at 10 microM by beta arrestin assay relative to control; type: functional; design: scale not given: the % may be the effect or the level left
[16] = target: Atypical chemokine receptor 3 (Homo sapiens) (UniProt P25106); test: Antagonist activity against CXCR7 (unknown origin) assessed as inhibition of beta-arrestin 2 recruitment at 10 microM by beta arrestin assay relative to control; type: functional; design: scale not given: the % may be the effect or the level left
[17] = Tmax in ICR mouse at 30 mg/kg, po measured upto 48 hrs; type: ADME, organism-based; details: in vivo
[18] = AUC (0 to t) in ICR mouse at 3 mg/kg, iv measured upto 48 hrs; type: ADME, organism-based; design: route intravenous, dose 3 mg/kg, time <=48; details: in vivo
[19] = AUC (0 to infinity) in ICR mouse at 3 mg/kg, iv measured upto 48 hrs; type: ADME, organism-based; design: route intravenous, dose 3 mg/kg, time <=48; details: in vivo
[20] = Half life in ICR mouse at 30 mg/kg, po measured upto 48 hrs; type: ADME, organism-based; details: ICR, in vivo
[21] = Apparent volume of distribution in ICR mouse at 3 mg/kg, iv measured upto 48 hrs; type: ADME, organism-based; details: in vivo, read-out: Vz
Panc02 [22] = test: Antitumour activity against mouse Panc02 cells xenografted in mouse assessed as tumour growth inhibition at 30 mg/kg, po bid […]; type: functional; details: read-out: TGI
PANC-1 = test: Cytotoxicity against human PanC-1 cells assessed as reduction in cell viability measured after 72 hrs by CCK8 assay; type: cell-based; details: PANC-1, 72 h
SW1990 = test: Cytotoxicity against human SW1990 cells assessed as reduction in cell viability measured after 72 hrs by CCK8 assay; type: cell-based; details: SW1990, 72 h
[23] = Cytotoxicity against human PBMC cells assessed as reduction in cell viability measured after 72 hrs by CCK8 assay; type: cell-based
Panc02 [24] = test: Antitumour activity against mouse Panc02 cells xenografted in mouse assessed as change in Gr1 expressing immune cells infiltration into tumor tissue at 10 mg/kg, po bid measured after 15 days by flow cytometry analysis (reference value: 27.4%); type: functional; details: time 15 day
Panc02 [25] = test: Antitumour activity against mouse Panc02 cells xenografted in mouse assessed as change in Gr1 expressing immune cells infiltration into tumor tissue at 30 mg/kg, po bid measured after 15 days by flow cytometry analysis (reference value: 27.4%); type: functional; details: time 15 day
Panc02 [26] = test: Antitumour activity against mouse Panc02 cells xenografted in mouse assessed as change in CD11b expressing immune cells infiltration into tumor tissue using LY6G antibody at 10 mg/kg, po bid measured after 15 days by flow cytometry analysis (reference value: 29.7%); type: functional; details: time 15 day
Panc02 [27] = test: Antitumour activity against mouse Panc02 cells xenografted in mouse assessed as change in CD11b expressing immune cells infiltration into tumor tissue using LY6G antibody at 30 mg/kg, po bid measured after 15 days by flow cytometry analysis (reference value: 29.7%); type: functional; details: time 15 day
Panc02 [28] = test: Antitumour activity against mouse Panc02 cells xenografted in mouse assessed as reduction in infiltration of neutrophils into tumor tissue at 30 mg/kg, po bid measured after 15 days by immunohistochemical analysis; type: functional, organism-based; details: time 15.0 day
Panc02 [29] = test: Antitumour activity against mouse Panc02 cells xenografted in mouse assessed as reduction in infiltration of granulocytic MDSCs into tumor tissue at 30 mg/kg, po bid measured after 15 days by immunohistochemical analysis; type: functional, organism-based; details: time 15.0 day
Mus musculus = test: Effect on granulocytic MDSCs level in mouse xenografted with […] cells at 10 to 30 mg/kg, po bid measured after 15 days by immunohistochemical analysis; type: ADME, organism-based; details: in vivo, 360 h, dose 10-30 mg/kg, time 15 day
Panc02 [30] = test: Antitumour activity against mouse Panc02 cells xenografted in mouse assessed as upregulation of infiltration of CD3+ T cell into tumor tissue treated po twice a day measured after 15 days by immunohistochemical analysis; type: functional, organism-based; details: dose 10-30 mg/kg, time 15.0 day

Chain of C-X-C chemokine receptor type 2 (Homo sapiens) (P25025 whole entry): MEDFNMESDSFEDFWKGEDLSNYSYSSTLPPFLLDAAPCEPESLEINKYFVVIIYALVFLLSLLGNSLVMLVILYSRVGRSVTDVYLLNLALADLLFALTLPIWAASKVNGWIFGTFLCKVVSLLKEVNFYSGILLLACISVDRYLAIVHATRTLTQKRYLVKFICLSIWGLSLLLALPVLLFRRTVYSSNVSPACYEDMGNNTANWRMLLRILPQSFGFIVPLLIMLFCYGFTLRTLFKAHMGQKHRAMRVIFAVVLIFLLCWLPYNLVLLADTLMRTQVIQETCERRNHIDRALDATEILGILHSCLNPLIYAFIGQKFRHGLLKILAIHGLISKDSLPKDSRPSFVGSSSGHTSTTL
Chain of C-C chemokine receptor type 7 (Homo sapiens) (P32248 whole entry): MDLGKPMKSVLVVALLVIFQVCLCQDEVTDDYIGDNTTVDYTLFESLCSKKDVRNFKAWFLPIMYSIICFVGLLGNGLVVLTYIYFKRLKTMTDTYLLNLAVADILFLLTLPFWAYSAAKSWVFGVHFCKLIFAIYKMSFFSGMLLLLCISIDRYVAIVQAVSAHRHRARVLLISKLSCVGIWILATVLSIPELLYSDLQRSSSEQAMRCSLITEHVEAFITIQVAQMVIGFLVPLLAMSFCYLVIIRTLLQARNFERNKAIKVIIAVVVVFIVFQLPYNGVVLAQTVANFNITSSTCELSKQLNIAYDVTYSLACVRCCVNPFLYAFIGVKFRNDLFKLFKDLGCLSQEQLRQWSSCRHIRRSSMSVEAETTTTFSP
Chain of C-C chemokine receptor type 6 (Homo sapiens) (P51684 whole entry): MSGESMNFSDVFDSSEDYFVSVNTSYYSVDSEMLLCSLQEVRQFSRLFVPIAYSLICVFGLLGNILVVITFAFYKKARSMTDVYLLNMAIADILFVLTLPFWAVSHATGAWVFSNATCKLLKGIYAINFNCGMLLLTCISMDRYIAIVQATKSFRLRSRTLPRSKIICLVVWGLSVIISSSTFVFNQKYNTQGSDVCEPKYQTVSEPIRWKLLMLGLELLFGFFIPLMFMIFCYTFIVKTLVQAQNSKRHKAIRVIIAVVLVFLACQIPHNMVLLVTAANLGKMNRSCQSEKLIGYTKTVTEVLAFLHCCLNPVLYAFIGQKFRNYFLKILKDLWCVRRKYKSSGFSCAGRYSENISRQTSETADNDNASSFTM
Chain of C-C chemokine receptor type 10 (Homo sapiens) (P46092 whole entry): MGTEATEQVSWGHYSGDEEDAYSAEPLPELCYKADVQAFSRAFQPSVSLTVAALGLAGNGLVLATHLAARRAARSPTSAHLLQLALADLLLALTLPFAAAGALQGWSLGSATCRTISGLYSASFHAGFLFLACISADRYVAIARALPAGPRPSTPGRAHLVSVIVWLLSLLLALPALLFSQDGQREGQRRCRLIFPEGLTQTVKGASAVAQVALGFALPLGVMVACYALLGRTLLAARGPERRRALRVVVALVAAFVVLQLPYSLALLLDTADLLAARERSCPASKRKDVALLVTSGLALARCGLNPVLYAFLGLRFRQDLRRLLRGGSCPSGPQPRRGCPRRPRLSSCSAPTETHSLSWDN
Chain of C-C chemokine receptor type 2 (Homo sapiens) (P41597 whole entry, looked up): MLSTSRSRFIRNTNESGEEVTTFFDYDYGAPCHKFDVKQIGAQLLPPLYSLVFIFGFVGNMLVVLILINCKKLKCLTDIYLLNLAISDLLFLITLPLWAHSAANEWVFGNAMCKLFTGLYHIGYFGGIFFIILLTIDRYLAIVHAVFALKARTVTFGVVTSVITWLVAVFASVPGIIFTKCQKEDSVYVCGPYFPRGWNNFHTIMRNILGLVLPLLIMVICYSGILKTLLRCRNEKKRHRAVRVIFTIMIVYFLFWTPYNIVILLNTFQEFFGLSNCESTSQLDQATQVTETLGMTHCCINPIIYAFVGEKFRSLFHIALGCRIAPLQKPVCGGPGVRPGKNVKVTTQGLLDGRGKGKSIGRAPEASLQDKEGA
Chain of C-X-C chemokine receptor type 3 (Homo sapiens) (P49682 whole entry): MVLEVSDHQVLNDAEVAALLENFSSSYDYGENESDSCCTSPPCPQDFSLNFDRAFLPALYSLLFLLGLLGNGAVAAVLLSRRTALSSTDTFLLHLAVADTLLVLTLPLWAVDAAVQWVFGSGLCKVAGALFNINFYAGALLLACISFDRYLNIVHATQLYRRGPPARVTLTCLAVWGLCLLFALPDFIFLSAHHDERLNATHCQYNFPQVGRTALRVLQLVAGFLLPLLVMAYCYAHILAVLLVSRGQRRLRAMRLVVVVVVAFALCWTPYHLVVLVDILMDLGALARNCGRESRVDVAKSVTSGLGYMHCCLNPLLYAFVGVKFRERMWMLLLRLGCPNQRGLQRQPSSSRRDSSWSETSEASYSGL
Chain of C-X-C chemokine receptor type 1 (Homo sapiens) (P25024 whole entry): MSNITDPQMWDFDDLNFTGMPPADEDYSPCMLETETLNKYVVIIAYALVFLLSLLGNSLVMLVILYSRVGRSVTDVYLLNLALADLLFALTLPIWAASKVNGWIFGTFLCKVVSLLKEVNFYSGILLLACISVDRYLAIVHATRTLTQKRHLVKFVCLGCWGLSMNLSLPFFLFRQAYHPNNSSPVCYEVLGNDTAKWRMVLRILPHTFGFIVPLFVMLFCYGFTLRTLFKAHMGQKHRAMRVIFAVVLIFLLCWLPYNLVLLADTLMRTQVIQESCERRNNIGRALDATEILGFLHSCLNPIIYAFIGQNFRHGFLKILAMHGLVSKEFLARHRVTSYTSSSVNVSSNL
Chain of Atypical chemokine receptor 3 (Homo sapiens) (P25106 whole entry): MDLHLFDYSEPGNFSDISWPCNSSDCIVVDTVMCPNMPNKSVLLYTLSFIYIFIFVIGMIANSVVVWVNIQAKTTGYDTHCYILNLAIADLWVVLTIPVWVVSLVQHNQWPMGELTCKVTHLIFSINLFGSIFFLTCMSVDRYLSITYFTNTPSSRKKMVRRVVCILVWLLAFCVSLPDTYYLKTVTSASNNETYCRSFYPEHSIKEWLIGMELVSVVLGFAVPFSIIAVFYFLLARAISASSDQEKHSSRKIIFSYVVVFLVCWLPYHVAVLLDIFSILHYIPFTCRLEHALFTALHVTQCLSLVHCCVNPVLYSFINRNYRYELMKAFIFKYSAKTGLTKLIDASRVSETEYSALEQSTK
Chain of C-C chemokine receptor type 8 (Homo sapiens) (P51685 whole entry): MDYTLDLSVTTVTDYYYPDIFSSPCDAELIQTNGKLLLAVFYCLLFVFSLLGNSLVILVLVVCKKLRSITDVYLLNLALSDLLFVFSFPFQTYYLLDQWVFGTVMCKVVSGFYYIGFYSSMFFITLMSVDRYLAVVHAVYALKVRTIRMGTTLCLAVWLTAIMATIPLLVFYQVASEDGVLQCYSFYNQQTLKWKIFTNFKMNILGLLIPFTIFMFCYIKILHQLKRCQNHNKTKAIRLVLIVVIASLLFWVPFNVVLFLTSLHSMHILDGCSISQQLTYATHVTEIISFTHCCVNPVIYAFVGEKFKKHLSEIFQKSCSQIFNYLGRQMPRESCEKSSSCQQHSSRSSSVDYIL
Chain of C-C chemokine receptor type 3 (Homo sapiens) (P51677 whole entry): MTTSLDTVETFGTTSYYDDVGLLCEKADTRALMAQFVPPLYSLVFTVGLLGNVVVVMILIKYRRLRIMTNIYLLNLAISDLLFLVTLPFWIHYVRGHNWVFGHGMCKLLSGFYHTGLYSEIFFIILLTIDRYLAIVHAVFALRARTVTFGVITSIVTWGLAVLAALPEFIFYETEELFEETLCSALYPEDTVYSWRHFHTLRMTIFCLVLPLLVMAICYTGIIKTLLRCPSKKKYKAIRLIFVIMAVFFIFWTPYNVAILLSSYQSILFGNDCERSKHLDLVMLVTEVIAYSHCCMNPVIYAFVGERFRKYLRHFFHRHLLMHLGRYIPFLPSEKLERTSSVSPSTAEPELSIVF
Chain of C-C chemokine receptor type 4 (Homo sapiens) (P51679 whole entry): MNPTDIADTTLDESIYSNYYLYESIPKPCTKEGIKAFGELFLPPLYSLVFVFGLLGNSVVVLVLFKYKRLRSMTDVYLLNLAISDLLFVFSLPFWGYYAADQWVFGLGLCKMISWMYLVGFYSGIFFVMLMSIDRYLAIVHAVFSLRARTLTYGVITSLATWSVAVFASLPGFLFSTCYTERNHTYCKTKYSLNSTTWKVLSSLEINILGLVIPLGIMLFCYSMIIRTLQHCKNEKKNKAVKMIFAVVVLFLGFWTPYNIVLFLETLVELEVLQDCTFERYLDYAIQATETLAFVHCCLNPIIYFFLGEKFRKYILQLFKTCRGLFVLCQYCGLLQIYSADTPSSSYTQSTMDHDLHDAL
Chain of C-C chemokine receptor type 5 (Homo sapiens) (P51681 whole entry, looked up): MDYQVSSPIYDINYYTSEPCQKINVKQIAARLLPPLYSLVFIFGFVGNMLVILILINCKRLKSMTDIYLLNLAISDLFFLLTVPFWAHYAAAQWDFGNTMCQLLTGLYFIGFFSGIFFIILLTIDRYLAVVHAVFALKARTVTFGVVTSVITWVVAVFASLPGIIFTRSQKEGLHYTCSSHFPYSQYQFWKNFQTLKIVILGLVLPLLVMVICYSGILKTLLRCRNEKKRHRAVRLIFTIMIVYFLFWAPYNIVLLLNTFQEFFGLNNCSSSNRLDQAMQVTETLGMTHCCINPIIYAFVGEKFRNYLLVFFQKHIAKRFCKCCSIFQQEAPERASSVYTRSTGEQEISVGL
Chain of C-X-C chemokine receptor type 5 (Homo sapiens) (P32302 whole entry): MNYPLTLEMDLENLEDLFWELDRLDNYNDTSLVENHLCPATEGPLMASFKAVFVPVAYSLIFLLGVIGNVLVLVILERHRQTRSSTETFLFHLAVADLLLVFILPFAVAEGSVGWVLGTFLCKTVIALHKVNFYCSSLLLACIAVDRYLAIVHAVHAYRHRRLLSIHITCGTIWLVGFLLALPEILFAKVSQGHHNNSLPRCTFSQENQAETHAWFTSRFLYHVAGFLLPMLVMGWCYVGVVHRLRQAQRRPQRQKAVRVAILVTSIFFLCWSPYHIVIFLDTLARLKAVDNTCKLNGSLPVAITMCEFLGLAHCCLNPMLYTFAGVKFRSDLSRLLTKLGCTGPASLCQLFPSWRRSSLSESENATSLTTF

Structure (SMILES): Cc1c(F)cccc1NC(=O)Nc1ccc2c(c1O)S(=O)(=O)CCC2
- Activity [1]: < 10%
- Activity [2]: < 10%
- Activity [3]: < 10%
- Activity [4]: < 10%
- Activity [5]: < 10%
- Activity [6]: < 10%
- Activity [7]: 20%
- Activity [8]: < 10%
- Activity [9]: < 10%
- Activity [10]: 33%
- Activity [11]: < 10%
- Activity [12]: 109%
- Activity [13]: < 10%
- Activity [14]: < 10%
- Activity [15]: 11%
- Activity [16]: 15%
- Tmax [17]: 1.41 h
- AUC(0-t) at 48 h [18]: 357 ng·h/mL
- AUC(0-inf) [19]: 365 ng·h/mL
- half-life [20]: 4.94 h
- Vd [21]: 49 L/kg
- inhibition in vivo at 30 mg/kg (Panc02 [22]): 61.4%
- IC50 (PANC-1): > 10 µM
- IC50 (SW1990): > 10 µM
- IC50 [23]: > 10 µM
- Activity (Panc02 [24]): 11.2%
- Activity (Panc02 [25]): 7.5%
- Activity (Panc02 [26]): 14%
- Activity (Panc02 [27]): 7.6%
- Activity (Panc02 [28]): Active
- Activity (Panc02 [29]): Active
- Activity (Mus musculus): Non-Toxic
- Activity (Panc02 [30]): Dose-Dependent Effect
